Measured values reported in PubChem BioAssay (NCI).
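Following 48 hours of exposure in 96-well plates, responses at five concentrations were used to interpolate endpoints linearly. At the GI50, growth is halved. Definition used: TGI = concentration required for complete inhibition of growth.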 Where a SMILES comes first, the peptide text is derived from it.

Experiments:
Assay in all cases: NCI tumour cell line growth inhibition, 48 h
PC-3 prostate = tested on: PC-3 prostate
SN12C renal = tested on: SN12C renal
OVCAR-3 ovarian = tested on: OVCAR-3 ovarian
EKVX NSCLC = tested on: EKVX NSCLC
RXF 393 renal = tested on: RXF 393 renal
SK-OV-3 ovarian = tested on: SK-OV-3 ovarian
SW-620 colon = tested on: SW-620 colon
OVCAR-8 ovarian = tested on: OVCAR-8 ovarian
SF-295 CNS = tested on: SF-295 CNS
NCI-H460 lung = tested on: NCI-H460 lung

| SMILES | TGI (PC-3 prostate) [µM] | GI50 (SN12C renal) [µM] | TGI (SN12C renal) [µM] | GI50 (OVCAR-3 ovarian) [µM] | TGI (OVCAR-3 ovarian) [µM] | GI50 (EKVX NSCLC) [µM] | TGI (EKVX NSCLC) [µM] | GI50 (RXF 393 renal) [µM] | TGI (RXF 393 renal) [µM] | GI50 (SK-OV-3 ovarian) [µM] | TGI (SK-OV-3 ovarian) [µM] | GI50 (SW-620 colon) [µM] | TGI (SW-620 colon) [µM] | GI50 (OVCAR-8 ovarian) [µM] | TGI (OVCAR-8 ovarian) [µM] | GI50 (SF-295 CNS) [µM] | TGI (SF-295 CNS) [µM] | GI50 (NCI-H460 lung) [µM] | TGI (NCI-H460 lung) [µM] | GI50 (PC-3 prostate) [µM] |
| --- | --- | --- | --- | --- | --- | --- | --- | --- | --- | --- | --- | --- | --- | --- | --- | --- | --- | --- | --- | --- |
| CC(C)CC(NC(=O)C(CC(C)C)NC(=O)C(Cc1cnc[nH]1)NC(=O)C(C)NC(=O)C(NC(=O)C(C)NC(=O)C(Cc1c[nH]c2ccccc12)NC(=O)C(CCC(=O)O)NC(=O)C(N)Cc1ccccc1)C(C)C)C(N)=O (stereo unspecified) (H-FEWAVAHLL-NH2; configuration not given here) | > 12.5 | > 100 | > 100 | > 100 | > 100 | > 100 | > 100 | > 100 | > 100 | > 100 | > 100 | > 100 | > 100 | > 100 | > 100 | > 100 | > 100 | > 100 | > 100 | – |
| N#CC(=S)Nc1ccc(Cl)c(Cl)c1 | 44.8 | – | > 68.5 | – | 54.3 | – | 61.1 | – | 52.4 | – | 61.6 | – | > 100 | – | > 87.1 | – | 57.8 | 16 | > 100 | – |
| CCOC(=O)c1c(-c2ccccc2)[n+](=O)c2ccc(Cl)cc2n1[O-] | 12 | 3.38 | 13.1 | 3.88 | 15.8 | 2.4 | 8.32 | 19.3 | 49.5 | 15.5 | > 100 | 5.59 | 17.7 | 4.46 | 16.8 | 4.87 | 19.1 | 5.36 | 17.9 | 3.05 |
| Clc1cc(Cl)c(Cl)c(-c2nc(-c3cccnc3)cs2)c1 | > 100 | 24.9 | > 100 | 16.2 | 81.9 | 40.2 | > 100 | 10.9 | 35.2 | > 100 | > 100 | 9.34 | 23.6 | 14.3 | 66.5 | 26.2 | 70.4 | 37.7 | > 100 | 59.4 |
| O=C(O)CC(Nc1ccccc1)C(=O)O (stereo unspecified) | > 100 | – | > 100 | – | > 100 | – | > 100 | – | > 100 | – | > 100 | – | > 100 | – | > 100 | – | > 100 | – | > 100 | – |
| CN(C)CCCN(c1nc(C(Cl)(Cl)Cl)ns1)c1nc(C(Cl)(Cl)Cl)ns1 | 5.14 | 3.42 | 11.6 | 2.01 | 4.09 | 3.32 | 13 | 1.81 | 3.21 | 1.88 | 4 | 1.67 | 3.18 | 1.77 | 3.52 | 1.7 | 3.6 | 1.81 | 3.56 | 1.94 |
| CNNCc1ccc(C(=O)NC(C)C)cc1 | > 500 | – | > 500 | – | > 472 | – | > 500 | > 500 | > 500 | – | > 500 | – | > 500 | – | > 500 | – | > 500 | – | > 500 | – |
| CC#CS(=O)(=O)c1ccccc1 | 25.2 | – | 19.4 | – | 3.59 | – | 35.4 | – | 31.8 | – | 40.5 | – | 16.5 | – | 12.5 | – | 14.5 | – | 38 | – |
| COc1ccc2c(c1)CCc1c(-c3noc4c3CCc3cc(OC)ccc3-4)noc1-2 | > 100 | – | > 100 | – | > 100 | – | > 100 | – | > 100 | – | > 100 | – | > 100 | – | > 100 | – | > 100 | – | > 100 | – |
| CCCc1cc2cc(-n3nc(C)c4c3CC(C)(C)CC4=O)cc(NC3CCC(O)CC3)c2c(=O)[nH]1 (stereo unspecified) | > 100 | 0.0683 | > 100 | 0.58 | > 100 | 1.53 | > 100 | 0.113 | 2.92 | 0.0892 | > 46.6 | 0.0578 | > 100 | 0.519 | > 100 | 0.307 | 2.06 | 0.0744 | > 100 | 0.423 |
| O=C(O)C1NCCc2c1[nH]c1ccccc21 (stereo unspecified) | > 10 | > 100 | > 100 | > 100 | > 100 | – | > 100 | – | > 10 | > 100 | > 100 | > 100 | > 100 | > 100 | > 100 | – | > 100 | – | > 100 | – |
